Data from patent US9884862B2, “Pyridopyrimidinedione derivatives” (Novartis AG, priority 2014, dated 2018).

Columns and labels:
CFTR-Y122X = CFTR-Y122X assay (dual reporter isogenic Hek293 cell lines, Renilla luminescence readthrough); format: cell-based; details: Homo sapiens, HEK293, 24 h, nonsense mutation suppression, 24 h incubation, tested up to 100 μM; for Emax: 100% = 14 mM paromomycin, read-out: Amax
Source text: Activity of compounds of the present invention was examined in recombinant, dual reporter isogenic Hek293 cell lines (“CFTR-Y122X assay”). The engineered reporter constructs contained the 18 bp sequence stretch corresponding to a common Y122X PTC mutation in CFTR class I mutant patients (see Sermet-Gaudelus, BMC Medicine, 2007, 5(5)). Instead of a tyrosine (Y) in position 122 of the CFTR protein a TGA stop codon interrupts the open reading frame (Y122X) of the corresponding mRNA. This TGA stop codon triplet (followed by the pyrimidine base cytosine) is permissive to aminoglycoside mediated translational readthrough which served as positive control for high throughput screening. A corresponding TAA stop codon variant and a wildtype non mutated construct was used for confirmation and counter screening. The CFTR sequence was sandwiched between an eGFP reporter, and a triple myc tag sequence fused to a full length Renilla reporter. All sequences, including an intron containing one positioned pre-eGFP (b-globin intron) were cloned in frame. The corresponding expression constructs were stably expressed in the isogenic HEK-R4 cell host (Invitrogen Incorp.) and selected by blasticidin resistance. The isogenic integration of the construct minimizes gene dose effects and improves assay reproducibility. Stably integrated single cell derived clones were selected and characterized for aminoglycoside mediated readthrough. […] Readthrough of Y122X accumulates an intracellular localized fusion protein approximately 65.5 kDa in size as controlled by western blot analysis and immunofluorescence using an anti-renilla antibody. The eGFP reporter pre-PTC mutation serves as visual control for genetic stability of the screening clones and minimizes protein degradation of small fusion protein amounts. In the assay, compound concentration was 10 μM. In miniaturized 1536 well format 2000 cells were dispensed in 4 μl/well and incubated for 24 h at 37° C., 5% CO2. 40 nl compounds were placed on the cells with control wells containing 1 ul Paramomycin and 14.4 mM final concentration. Compounds were incubated for 24 h. Renilla Glo substrate (2.5 ul) was added and plates were centrifuged and processed for luminescence measurement using various readers. Activity calculation was done using the equation: A1(%)=100*(S−NC)/(AC−NC) where AC, NC and S correspond to active controls (injection of Stimulation buffer=100% stimulation), neutral controls (buffer injection which Iloprost EC10) and screening samples (S). NC corresponds to 0% activity whereas AC is 100% activity (14 mM paromomycin). False positive artifacts were removed in confirmation and validation screening using the same assay format followed by counterscreening using the respective wildtype construct (w/o PTC mutation) cell model. Compounds were tested up to 100 μM compound concentration.

[1] = system: alpha-L-Iduronidase W402X in Hurler patient derived fibroblast cells; test: Hurler patient derived fibroblast cell cultures, restored alpha-L-iduronidase activity (W402X readthrough); format: cell-based, human; details: Homo sapiens, Fibroblast, 192 h, 8 days incubation, highest concentration 20 uM; for Emax: 14 mM paromomycin = 100% control, read-out: Amax; for AC50: 8 point dilutions
Source text: Activity of compounds of the present invention was examined in patient derived fibroblast cells. The genotyped cells were derived from the Coriell Institute (# GM00798) and contain an in frame homozygous TGG to TAG change at nucleotide 1293 of exon 9 which results in a W402X mutation. The W402X mutation is one of the most common Hurler syndromes causing loss of function mutation. Between 60-70% of genotyped patients contain either the Q70X and/or the W402X in mutation and are classified as severe MPSI patients. This TAG stop codon triplet is permissive to aminoglycoside mediated translational readthrough which served as activity control for compound testing. Readthrough of W402X restores alpha-L-Iduronidase activity which results in removal of lysosomal accumulated Glycosaminoglycan's. Iduronidase expression could neither be detected by Taqman PCR© nor by enzyme activity or ELISA methods without compound stimulation. Compounds were tested in concentration response mode. Therefore 5000 patient cells/40 ul/well in 384 well plates were used. Compound dilutions were derived from freshly prepared 10 mM compound stock solutions. Highest concentration was 20 uM and subsequently diluted 1: 3.16 (8 point dilutions, n=4). Final DMSO concentration was below 0.5% and tested to be without effect on cell viability, growth and readthrough. Cells were incubated for 8 days with one cell media and compound exchange at day 3. Thereafter cell media was removed and cells were lysed (0.4 M Sodiumformate, 0.1% NaN3, 0.9% NaCl, 0.2% Triton, pH 3.5). Restored alpha-L-iduronidase activity in cell lysates was measured with the fluorescent 4-MU iduronide substrate (5 ul of 0.4 mM 4 Methylumbelliferyl alpha-L-iduronide/well) after 48 h incubation. Paromomycin was used as reference control (14 mM=100% control).

Structure (SMILES) | Emax (CFTR-Y122X) [%] | AC50 (CFTR-Y122X) [µM] | Emax [1] [%] | AC50 [1] [µM]
Cn1c2cc(Cl)sc2c(=O)c2c(=O)n(-c3ccccc3)c(C3CCC3)nc21 [Example 2.17, 7-chloro-2-cyclobutyl-9-methyl-3-phenylthieno[2′,3′:5,6]pyrido[2,3-d]pyrimidine-4,5(3H,9H)-dione] | 151 | 4 | 128 | 10
Cn1c2nc(C3CCC3)n(-c3ccccc3)c(=O)c2c(=O)c2cc(Cl)sc21 [Example 2.18, 7-chloro-2-cyclobutyl-9-methyl-3-phenylthieno[3′,2′:5,6]pyrido[2,3-d]pyrimidine-4,5(3H,9H)-dione] | 154 | 3.3 | 200 | 11
CC(C)c1nc2c(c(=O)c3cc(Cl)sc3n2C)c(=O)n1-c1ccccc1 [Example 2.19] | 104 | 15 | 16 | 
CC(C)c1nc2c(c(=O)c3sc(Cl)cc3n2C)c(=O)n1-c1ccccc1 [Example 2.20, 7-chloro-2-isopropyl-9-methyl-3-phenylthieno[2′,3′:5,6]pyrido[2,3-d]pyrimidine-4,5(3H,9H)-dione] | 70 | 19 | 7 | 
Cc1csc2c(=O)c3c(=O)n(-c4ccccc4)c(C(C)C)nc3[nH]c12 [Example 2.21, 2-isopropyl-8-methyl-3-phenylthieno[2′,3′:5,6]pyrido[2,3-d]pyrimidine-4,5(3H,9H)-dione] | 180 | 14 | 25 | 
Cc1csc2c(=O)c3c(=O)n(-c4ccccc4)c(C(C)C)nc3n(C)c12 [Example 2.22, 2-isopropyl-8,9-dimethyl-3-phenylthieno[2′3′:5,6]pyrido[2,3-d]pyrimidine-4,5(3H,9H)-dione] | 166 | 16 | 8 | 
CC(C)c1nc2[nH]c3c(c(=O)c2c(=O)n1-c1ccccc1)CCCCC3 [Example 3.1, 2-isopropyl-3-phenyl-7,8,9,10-tetrahydro-3H-cyclohepta[5,6]pyrido[2,3-d]pyrimidine-4,5(6H,11H)-dione] | 190 | 13 | 9 | 1.4
CC(C)c1nc2c(c(=O)c3c(n2C)CCCCC3)c(=O)n1-c1ccccc1 [Example 3.2, 2-isopropyl-11-methyl-3-phenyl-7,8,9,10-tetrahydro-3H-cyclohepta[5,6]pyrido[2,3-d]pyrimidine-4,5(6H,11H)-dione] | 213 | 11 | 83 | 12
CC(C)c1nc2[nH]c3c(c(=O)c2c(=O)n1-c1ccccc1)CCC3 [Example 3.3, 2-isopropyl-3-phenyl-7,8-dihydro-3H-cyclopenta[5,6]pyrido[2,3-d]pyrimidine-4,5(6H,9H)-dione] | 112 | 21 | 8 | 
CC(C)c1nc2c(c(=O)c3c(n2C)CCC3)c(=O)n1-c1ccccc1 [Example 3.4, 2-isopropyl-9-methyl-3-phenyl-7,8-dihydro-3H-cyclopenta[5,6]pyrido[2,3-d]pyrimidine-4,5(6H,9H)-dione] | 40 | 18 | 8 | 1.4
Cc1[nH]c2nc(C(C)C)n(-c3ccccc3)c(=O)c2c(=O)c1C [Example 3.5, 2-isopropyl-6,7-dimethyl-3-phenylpyrido[2,3-d]pyrimidine-4,5(3H,8H)-dione] | 114 | 17 | 9 | 
CC1CCc2c([nH]c3nc(C(C)C)n(-c4ccccc4)c(=O)c3c2=O)C1 (stereo not shown) [Example 3.6, 2-isopropyl-8-methyl-3-phenyl-6,7,8,9-tetrahydropyrimido[4,5-b]quinoline-4,5(3H,10H)-dione] | 46 | 27 | 10 | 
Cc1c(C)n(C)c2nc(C(C)C)n(-c3ccccc3)c(=O)c2c1=O [Example 3.7, 2-isopropyl-6,7,8-trimethyl-3-phenylpyrido[2,3-d]pyrimidine-4,5(3H,8H)-dione] | 61 | 22 | 14 | 
CC1CCc2[nH]c3nc(C(C)C)n(-c4ccccc4)c(=O)c3c(=O)c2C1 (stereo not shown) [Example 3.8, 2-isopropyl-7-methyl-3-phenyl-6,7,8,9-tetrahydropyrimido[4,5-b]quinoline-4,5(3H,10H)-dione] | 219 | 12 | 12 | 1.3
CC1CCc2c(n(C)c3nc(C(C)C)n(-c4ccccc4)c(=O)c3c2=O)C1 (stereo not shown) [Example 3.9, 2-isopropyl-8,10-dimethyl-3-phenyl-6,7,8,9-tetrahydropyrimido[4,5-b]quinoline-4,5(3H,10H)-dione] | 11 | 11 | 15 | 
CC1CCc2c(c(=O)c3c(=O)n(-c4ccccc4)c(C(C)C)nc3n2C)C1 (stereo not shown) [Example 3.10, 2-isopropyl-7,10-dimethyl-3-phenyl-6,7,8,9-tetrahydropyrimido[4,5-b]quinoline-4,5(3H,10H)-dione] | 237 | 12 | 6 | 
CC(C)c1nc2c(c(=O)c3c(n2C)CCCC3)c(=O)n1-c1ccccc1 [Example 3.11, 2-isopropyl-10-methyl-3-phenyl-6,7,8,9-tetrahydropyrimido[4,5-b]quinoline-4,5(3H,10H)-dione] | 137 | 22 | 17 | 
Cc1[nH]c2nc(C3CCC3)n(-c3ccccc3)c(=O)c2c(=O)c1C [Example 3.12, 2-cyclobutyl-6,7-dimethyl-3-phenylpyrido[2,3-d]pyrimidine-4,5(3H,8H)-dione] | 505 | 4.9 | 183 | 12
Cc1c(C)n(C)c2nc(C3CCC3)n(-c3ccccc3)c(=O)c2c1=O [Example 3.13, 2-cyclobutyl-6,7,8-trimethyl-3-phenylpyrido[2,3-d]pyrimidine-4,5(3H,8H)-dione] | 297 | 9.2 | 34 | 
